Source: patent publication US6407124B1, “Carbon substituted aminothiazole inhibitors of cyclin dependent kinases” (Bristol-Myers Squibb Company, priority 1998, dated 2002)

melting point [°C] | Compound
239 to 240 | CCOC(=O)/C=C/c1cnc(NC(C)=O)s1 [Example 1, Ethyl 3-((E)-2-acetamido-thiazol-5-yl)-acrylate]
275 | CC(=O)Nc1ncc(/C=C/c2ncc(C(C)(C)C)o2)s1 [Example 2, N-[(E)-5-(2-(5-t-butyl-oxazol-2-yl)-vinyl)-thiazol-2-yl]-acetamide]
